Data: ChEMBL document CHEMBL1201862, “PubChem BioAssay data set” (2004)
Active and inactive are the calls of the source.

Key:
Assay type in all cases: functional
[1] = biological target: Dual specificity tyrosine-phosphorylation-regulated kinase 1A (Homo sapiens, UniProt Q13627);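 further: measured against DYRK1A as one member of a broad kinome profiling panel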
[2] = biological target: Glycogen synthase kinase-3 beta (Homo sapiens, UniProt P49841);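 further: value comes from a broad kinome profiling panel, with GSK3B as the panel member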
[3] = biological target: Vascular endothelial growth factor receptor 2 (Homo sapiens, UniProt P35968)
[4] = biological target: Mitogen-activated protein kinase kinase kinase kinase 2 (Homo sapiens, UniProt Q12851);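 further: measured as one member of a kinome-wide kinase panel, with MAP4K2 as the panel entry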
[5] = biological target: Mitogen-activated protein kinase kinase kinase kinase 4 (Homo sapiens, UniProt O95819)
Aurora kinase B = Aurora kinase B (Homo sapiens, UniProt Q96GD4)
[6] = biological target: Fibroblast growth factor receptor 1 (Homo sapiens, UniProt P11362)
[7] = biological target: Tyrosine-protein kinase Lck (Homo sapiens, UniProt P06239);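 further: lck was assayed as one member of a kinase panel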
Aurora kinase A = biological target: T1, Aurora kinase A (Homo sapiens, UniProt O14965);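 further: value from the Navigating the Kinome kinase panel profiling, panel entry STK6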
T1 sequence (O14965 whole entry): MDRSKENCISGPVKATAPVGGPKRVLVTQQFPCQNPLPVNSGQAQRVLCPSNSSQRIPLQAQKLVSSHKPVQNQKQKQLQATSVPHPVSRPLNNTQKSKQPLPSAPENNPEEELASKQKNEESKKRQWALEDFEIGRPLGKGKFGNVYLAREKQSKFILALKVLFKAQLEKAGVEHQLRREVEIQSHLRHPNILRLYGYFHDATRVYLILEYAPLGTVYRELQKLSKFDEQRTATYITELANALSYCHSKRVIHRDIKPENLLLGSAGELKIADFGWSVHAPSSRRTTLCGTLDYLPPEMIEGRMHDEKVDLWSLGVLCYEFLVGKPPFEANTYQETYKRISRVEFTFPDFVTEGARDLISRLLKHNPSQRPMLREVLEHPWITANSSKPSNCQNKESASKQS

LIM domain kinase 1 = LIM domain kinase 1 (Homo sapiens, UniProt P53667); experiment: Navigating the Kinome. Panel member name: LIMK1
[8] = biological target: Macrophage colony-stimulating factor 1 receptor (Homo sapiens, UniProt P07333);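 further: value comes from the Navigating the Kinome screening panel, CSF1R member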
[9] = biological target: cAMP-dependent protein kinase catalytic subunit alpha (Homo sapiens, UniProt P17612)
[10] = biological target: Macrophage-stimulating protein receptor (Homo sapiens, UniProt Q04912); experiment: Navigating the Kinome. Panel member name: MST1R
[11] = biological target: Casein kinase I isoform alpha (Homo sapiens, UniProt P48729)
[12] = biological target: Dual specificity protein kinase CLK4 (Homo sapiens, UniProt Q9HAZ1)
[13] = biological target: ALK tyrosine kinase receptor (Homo sapiens, UniProt Q9UM73);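 further: ALK tested as one member of a kinase panel screen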
[14] = biological target: Leucine-rich repeat serine/threonine-protein kinase 2 (Homo sapiens, UniProt Q5S007);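 further: value from a broad kinome-wide panel profiling study in which LRRK2 was one of the kinases tested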
Activin receptor type-1 = Activin receptor type-1 (Homo sapiens, UniProt Q04771); experiment: Navigating the Kinome. Panel member name: ACVR1
[15] = biological target: Tyrosine-protein kinase ABL1 (Homo sapiens, UniProt P00519)
[16] = biological target: Platelet-derived growth factor receptor alpha (Homo sapiens, UniProt P16234); experiment: Navigating the Kinome. Panel member name: PDGFRA
[17] = biological target: Cyclin-dependent kinase 5 (Homo sapiens, UniProt Q00535);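 further: CDK5 measured as one member of a kinase profiling panel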
[18] = biological target: Cyclin-dependent kinase 8 (Homo sapiens, UniProt P49336); experiment: Navigating the Kinome. Panel member name: CDK8
[19] = biological target: Protein kinase C theta type (Homo sapiens, UniProt Q04759); experiment: Navigating the Kinome. Panel member name: PRKCQ
[20] = biological target: Dual specificity tyrosine-phosphorylation-regulated kinase 1B (Homo sapiens, UniProt Q9Y463); experiment: Navigating the Kinome. Panel member name: DYRK1B
[21] = biological target: Hepatocyte growth factor receptor (Homo sapiens, UniProt P08581);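 further: kinase panel profiling across the kinome, with MET as the panel member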
[22] = biological target: Serine/threonine-protein kinase Chk1 (Homo sapiens, UniProt O14757);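 further: measured as one member of a kinome-wide kinase profiling panel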
[23] = biological target: Tyrosine-protein kinase Fyn (Homo sapiens, UniProt P06241)
[24] = biological target: Receptor-type tyrosine-protein kinase FLT3 (Homo sapiens, UniProt P36888);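 further: FLT3 was tested as one member of a kinome-wide kinase panel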
[25] = biological target: Cyclin-dependent kinase 7 (Homo sapiens, UniProt P50613);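 further: value comes from a kinome-wide kinase profiling panel in which CDK7 is one member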
[26] = biological target: Cyclin-dependent kinase 9 (Homo sapiens, UniProt P50750);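 further: value from the CDK9 entry of a kinome-spanning kinase panel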
[27] = biological target: Serine/threonine-protein kinase pim-1 (Homo sapiens, UniProt P11309)
[28] = biological target: Dual specificity mitogen-activated protein kinase kinase 1 (Homo sapiens, UniProt Q02750); experiment: Navigating the Kinome. Panel member name: MAP2K1
[29] = biological target: Leukocyte tyrosine kinase receptor (Homo sapiens, UniProt P29376); experiment: Navigating the Kinome. Panel member name: LTK
[30] = biological target: Mitogen-activated protein kinase 8 (Homo sapiens, UniProt P45983);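 further: value comes from one member of a kinome-wide kinase profiling panel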
[31] = biological target: Tyrosine-protein kinase receptor TYRO3 (Homo sapiens, UniProt Q06418);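 further: TYRO3 value obtained as one member of a kinome-wide profiling panel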
[32] = biological target: Rho-associated protein kinase 1 (Homo sapiens, UniProt Q13464);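 further: measured within a broad kinome-wide panel profiling many kinases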

Macrophage-stimulating protein receptor, sequence (Q04912 25-304 limits assumed): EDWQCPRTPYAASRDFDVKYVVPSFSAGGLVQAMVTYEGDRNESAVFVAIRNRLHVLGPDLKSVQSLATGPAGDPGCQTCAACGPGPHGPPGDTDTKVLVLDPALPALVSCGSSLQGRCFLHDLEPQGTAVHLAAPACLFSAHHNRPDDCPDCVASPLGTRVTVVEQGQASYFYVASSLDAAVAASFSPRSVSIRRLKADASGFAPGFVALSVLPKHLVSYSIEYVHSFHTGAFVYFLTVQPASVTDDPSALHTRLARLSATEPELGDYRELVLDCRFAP
Macrophage-stimulating protein receptor, sequence (Q04912 310-1400 limits assumed): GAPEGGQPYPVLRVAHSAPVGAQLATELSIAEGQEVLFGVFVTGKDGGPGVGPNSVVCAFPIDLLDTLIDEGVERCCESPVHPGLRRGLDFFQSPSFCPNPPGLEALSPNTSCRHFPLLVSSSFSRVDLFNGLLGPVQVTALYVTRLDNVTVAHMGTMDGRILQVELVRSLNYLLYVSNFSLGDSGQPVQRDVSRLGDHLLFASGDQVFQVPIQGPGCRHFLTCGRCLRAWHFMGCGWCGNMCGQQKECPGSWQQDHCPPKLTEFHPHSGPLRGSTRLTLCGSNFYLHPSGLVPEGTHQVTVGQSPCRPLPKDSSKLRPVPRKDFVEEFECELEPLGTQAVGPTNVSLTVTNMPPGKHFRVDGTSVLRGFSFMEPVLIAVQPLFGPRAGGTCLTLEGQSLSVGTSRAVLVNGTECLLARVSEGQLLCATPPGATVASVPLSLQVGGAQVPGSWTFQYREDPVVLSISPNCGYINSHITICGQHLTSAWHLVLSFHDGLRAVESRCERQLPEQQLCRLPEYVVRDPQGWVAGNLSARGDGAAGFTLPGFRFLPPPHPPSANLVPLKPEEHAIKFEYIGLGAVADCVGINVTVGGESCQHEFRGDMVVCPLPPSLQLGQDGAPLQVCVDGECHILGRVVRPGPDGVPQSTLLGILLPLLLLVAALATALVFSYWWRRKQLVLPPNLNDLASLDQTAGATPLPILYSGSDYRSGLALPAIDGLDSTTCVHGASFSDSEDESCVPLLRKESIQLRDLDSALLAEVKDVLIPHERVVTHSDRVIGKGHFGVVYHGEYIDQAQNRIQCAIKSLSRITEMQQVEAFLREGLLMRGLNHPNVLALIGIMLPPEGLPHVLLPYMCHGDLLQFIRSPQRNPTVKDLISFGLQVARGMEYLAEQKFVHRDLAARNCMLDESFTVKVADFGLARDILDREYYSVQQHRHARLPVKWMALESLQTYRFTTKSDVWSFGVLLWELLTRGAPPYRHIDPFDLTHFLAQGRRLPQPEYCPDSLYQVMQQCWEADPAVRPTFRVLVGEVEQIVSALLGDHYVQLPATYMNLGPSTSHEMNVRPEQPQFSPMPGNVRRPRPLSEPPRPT
Receptor-type tyrosine-protein kinase FLT3, sequence (P36888 whole entry): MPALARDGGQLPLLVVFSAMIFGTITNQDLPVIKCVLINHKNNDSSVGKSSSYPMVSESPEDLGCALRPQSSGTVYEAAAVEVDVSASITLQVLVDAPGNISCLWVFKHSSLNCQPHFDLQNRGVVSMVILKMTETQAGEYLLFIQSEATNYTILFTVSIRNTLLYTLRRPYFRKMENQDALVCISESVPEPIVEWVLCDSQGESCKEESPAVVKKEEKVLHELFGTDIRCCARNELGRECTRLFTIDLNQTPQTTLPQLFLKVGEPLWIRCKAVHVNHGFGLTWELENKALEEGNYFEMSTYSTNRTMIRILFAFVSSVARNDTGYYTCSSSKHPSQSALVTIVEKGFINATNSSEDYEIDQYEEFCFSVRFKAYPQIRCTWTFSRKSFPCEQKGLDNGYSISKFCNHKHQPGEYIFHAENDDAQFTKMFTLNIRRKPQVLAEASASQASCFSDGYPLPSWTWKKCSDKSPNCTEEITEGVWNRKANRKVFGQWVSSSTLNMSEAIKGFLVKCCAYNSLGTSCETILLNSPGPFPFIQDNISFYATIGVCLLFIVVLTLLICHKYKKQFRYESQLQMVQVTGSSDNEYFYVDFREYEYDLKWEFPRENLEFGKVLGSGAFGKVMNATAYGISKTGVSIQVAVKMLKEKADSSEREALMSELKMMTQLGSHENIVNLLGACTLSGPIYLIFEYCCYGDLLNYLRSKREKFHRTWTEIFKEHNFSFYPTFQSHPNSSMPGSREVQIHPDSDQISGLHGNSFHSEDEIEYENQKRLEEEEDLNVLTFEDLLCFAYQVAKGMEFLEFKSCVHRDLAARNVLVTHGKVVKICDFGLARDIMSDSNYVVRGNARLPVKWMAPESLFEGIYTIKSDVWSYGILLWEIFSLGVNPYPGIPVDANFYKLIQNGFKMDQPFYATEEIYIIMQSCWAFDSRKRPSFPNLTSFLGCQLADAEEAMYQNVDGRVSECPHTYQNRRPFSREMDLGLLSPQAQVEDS
Hepatocyte growth factor receptor, sequence (P08581 whole entry): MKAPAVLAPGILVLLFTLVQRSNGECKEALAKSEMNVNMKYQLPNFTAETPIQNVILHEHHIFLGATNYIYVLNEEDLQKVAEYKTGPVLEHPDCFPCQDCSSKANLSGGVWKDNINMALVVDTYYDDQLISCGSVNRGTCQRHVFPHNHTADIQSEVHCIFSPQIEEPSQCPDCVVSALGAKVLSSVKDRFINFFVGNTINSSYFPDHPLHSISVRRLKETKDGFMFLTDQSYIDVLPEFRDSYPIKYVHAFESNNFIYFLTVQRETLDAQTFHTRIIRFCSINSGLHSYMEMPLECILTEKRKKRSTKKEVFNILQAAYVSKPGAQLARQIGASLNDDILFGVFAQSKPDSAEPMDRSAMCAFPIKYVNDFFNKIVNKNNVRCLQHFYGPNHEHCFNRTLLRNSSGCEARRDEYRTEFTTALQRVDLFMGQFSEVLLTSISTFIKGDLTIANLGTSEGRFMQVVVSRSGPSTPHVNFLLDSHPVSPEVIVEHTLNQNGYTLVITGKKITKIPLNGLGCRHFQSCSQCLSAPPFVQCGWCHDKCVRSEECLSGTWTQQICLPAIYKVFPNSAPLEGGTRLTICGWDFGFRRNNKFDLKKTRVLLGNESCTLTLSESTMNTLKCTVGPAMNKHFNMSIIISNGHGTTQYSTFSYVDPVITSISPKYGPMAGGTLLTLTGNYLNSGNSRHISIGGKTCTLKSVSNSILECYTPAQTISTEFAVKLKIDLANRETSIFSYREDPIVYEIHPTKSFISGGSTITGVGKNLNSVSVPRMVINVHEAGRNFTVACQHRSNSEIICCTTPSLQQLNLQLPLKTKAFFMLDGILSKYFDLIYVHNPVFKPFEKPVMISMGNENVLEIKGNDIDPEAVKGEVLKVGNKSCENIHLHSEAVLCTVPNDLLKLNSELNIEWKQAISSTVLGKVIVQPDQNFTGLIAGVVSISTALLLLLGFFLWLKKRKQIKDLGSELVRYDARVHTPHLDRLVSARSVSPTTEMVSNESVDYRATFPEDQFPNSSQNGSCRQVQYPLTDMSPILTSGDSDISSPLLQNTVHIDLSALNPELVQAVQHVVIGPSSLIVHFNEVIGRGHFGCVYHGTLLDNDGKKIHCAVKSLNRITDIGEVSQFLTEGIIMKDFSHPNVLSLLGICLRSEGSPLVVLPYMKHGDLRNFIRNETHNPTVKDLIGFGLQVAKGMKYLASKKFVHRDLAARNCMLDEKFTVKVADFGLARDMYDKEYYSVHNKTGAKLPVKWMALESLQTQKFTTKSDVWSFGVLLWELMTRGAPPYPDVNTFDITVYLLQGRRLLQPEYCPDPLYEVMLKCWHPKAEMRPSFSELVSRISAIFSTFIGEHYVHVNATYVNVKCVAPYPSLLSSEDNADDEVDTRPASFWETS
Mitogen-activated protein kinase 8, sequence (P45983 whole entry): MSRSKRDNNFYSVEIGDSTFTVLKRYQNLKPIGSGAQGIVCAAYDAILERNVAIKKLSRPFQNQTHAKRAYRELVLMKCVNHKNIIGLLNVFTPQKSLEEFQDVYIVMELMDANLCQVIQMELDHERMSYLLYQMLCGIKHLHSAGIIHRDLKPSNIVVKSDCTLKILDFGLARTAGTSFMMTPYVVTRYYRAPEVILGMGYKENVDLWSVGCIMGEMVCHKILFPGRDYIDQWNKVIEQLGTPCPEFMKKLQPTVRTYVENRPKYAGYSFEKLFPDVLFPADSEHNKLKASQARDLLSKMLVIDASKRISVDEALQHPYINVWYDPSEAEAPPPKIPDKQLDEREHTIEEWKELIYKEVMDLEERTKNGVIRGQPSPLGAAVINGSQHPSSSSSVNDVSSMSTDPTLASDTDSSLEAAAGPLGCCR
Dual specificity tyrosine-phosphorylation-regulated kinase 1B, sequence (Q9Y463 whole entry): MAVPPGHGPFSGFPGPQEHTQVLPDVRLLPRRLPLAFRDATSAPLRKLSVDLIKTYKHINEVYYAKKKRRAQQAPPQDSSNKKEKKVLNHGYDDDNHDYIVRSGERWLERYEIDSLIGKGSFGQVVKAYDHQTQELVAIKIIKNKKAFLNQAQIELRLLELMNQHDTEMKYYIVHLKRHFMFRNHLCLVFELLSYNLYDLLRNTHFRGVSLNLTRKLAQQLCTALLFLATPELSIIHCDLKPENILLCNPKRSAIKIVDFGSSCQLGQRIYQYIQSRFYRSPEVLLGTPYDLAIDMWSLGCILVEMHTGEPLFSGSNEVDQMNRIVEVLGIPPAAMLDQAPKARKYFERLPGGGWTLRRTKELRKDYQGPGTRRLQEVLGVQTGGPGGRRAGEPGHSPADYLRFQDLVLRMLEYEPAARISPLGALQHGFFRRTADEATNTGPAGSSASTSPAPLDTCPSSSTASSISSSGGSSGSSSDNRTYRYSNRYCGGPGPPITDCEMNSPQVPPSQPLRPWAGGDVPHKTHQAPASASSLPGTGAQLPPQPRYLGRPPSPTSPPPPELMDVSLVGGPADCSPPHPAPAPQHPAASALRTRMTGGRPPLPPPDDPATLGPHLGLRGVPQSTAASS

Cc1cccc(-c2cccc3onc(N)c23)c1
Ki [1]: 12.6 µM (active) | Ki [2]: 39.8 µM (active) | Ki [3]: 100 µM (active) | Ki [4]: 3.16 µM (active) | Ki [5]: 10 µM (active) | Ki (Aurora kinase B): 6.31 µM (active) | Ki [6]: 79.4 µM (active) | Ki [7]: 100 µM (active) | Ki (Aurora kinase A): > 63.1 µM (inactive) | Ki (LIM domain kinase 1): 20 µM (active) | Ki [8]: 15.8 µM (active) | Ki [9]: 10 µM (active) | Ki [10]: 50.1 µM (active) | Ki [11]: 25.1 µM (active) | Ki [12]: 5.01 µM (active) | Ki [13]: 100 µM (active) | Ki [14]: 15.8 µM (active) | Ki (Activin receptor type-1): 3.16 µM (active) | Ki [15]: 25.1 µM (active) | Ki [16]: 15.8 µM (active) | Ki [17]: 5.01 µM (active) | Ki [18]: 3.16 µM (active) | Ki [19]: > 100 µM (inactive) | Ki [20]: 10 µM (active) | Ki [21]: 31.6 µM (active) | Ki [22]: 39.8 µM (active) | Ki [23]: 79.4 µM (active) | Ki [24]: 63.1 µM (active) | Ki [25]: 50.1 µM (active) | Ki [26]: 39.8 µM (active) | Ki [27]: 5.01 µM (active) | Ki [28]: 2 µM (active) | Ki [29]: 7.94 µM (active) | Ki [30]: 39.8 µM (active) | Ki [31]: 31.6 µM (active) | Ki [32]: 10 µM (active)
